Data as given in patent US20240101521A1, “DIAMINOTRIAZINE COMPOUNDS” (BASF SE, priority 2021, published 2024).

Experiments:
Test in all cases: greenhouse pre-emergence herbicidal test
Format in all cases: in vivo
Echinochloa crus-galli = conditions: scale 0 to 100
Description: (§1) The culture containers used were plastic flowerpots containing loamy sand with approximately 3.0% of humus as the substrate. The seeds of the test plants were sown separately for each species.
(§2) For the pre-emergence treatment, the active ingredients, which had been suspended or emulsified in water, were applied directly after sowing by means of finely distributing nozzles. The containers were irrigated gently to promote germination and growth and subsequently covered with transparent plastic hoods until the plants had rooted. This cover caused uniform germination of the test plants, unless this had been impaired by the active ingredients. For the post-emergence treatment, the test plants were first grown to a height of 3 to 15 cm, depending on the plant habit, and only then treated with the active ingredients which had been suspended or emulsified in water. For this purpose, the test plants were either sown directly and grown in the same containers, or they were first grown separately as seedlings and transplanted into the test containers a few days prior to treatment.
(§3) Depending on the species, the plants were kept at 10-25° C. or 20-35° C., respectively.
(§4) The test period extended over 2 to 4 weeks. During this time, the plants were tended, and their response to the individual treatments was evaluated.
(§5) Evaluation was carried out using a scale from 0 to 100. 100 means no emergence of the plants, or complete destruction of at least the aerial moieties, and 0 means no damage, or normal course of growth. A moderate herbicidal activity is given at values of at least 60, a good herbicidal activity is given at values of at least 70, and a very good herbicidal activity is given at values of at least 85.
(§6) The plants used in the greenhouse experiments were of the following species: […]

Amaranthus retroflexus = conditions: scale 0 to 100
Description: as §1, §2, §3, §4, §5, §6

Abutilon theophrasti = conditions: scale 0 to 100
Description: as §1, §2, §3, §4, §5, §6

Setaria faberi = conditions: scale 0 to 100
Description: as §1, §2, §3, §4, §5, §6

Lolium multiflorum = conditions: pre-emergence, 62,5 g/ha, scale 0 to 100
Description: as §1, §2, §3, §4, §5, §6

Alopecurus myosuroides = conditions: scale 0 to 100
Description: as §1, §2, §3, §4, §5, §6

SMILES	herbicidal activity (Echinochloa crus-galli; pre-emergence, 62,5 g/ha) [%]	herbicidal activity (Amaranthus retroflexus; pre-emergence, 62,5 g/ha) [%]	herbicidal activity (Abutilon theophrasti; pre-emergence, 62,5 g/ha) [%]	herbicidal activity (Setaria faberi; pre-emergence, 62,5 g/ha) [%]	other results
COc1c(Br)cc(F)c(F)c1Nc1nc(N)nc(C(C)(F)CCl)n1 (stereo not drawn) [Example 33]	98	100	100		
CC(C)(F)c1nc(N)nc(Nc2c(F)c(F)cc(Cl)c2OC/C=C/Br)n1 [Example 125]		100		100	herbicidal activity (Lolium multiflorum): 100%
COc1c(Cl)cc(Cl)c(F)c1Nc1nc(N)nc(C(C)F)n1 (stereo not drawn) [Example 63]					herbicidal activity (Setaria faberi; pre-emergence, 31 g/ha): 100%; herbicidal activity (Amaranthus retroflexus; pre-emergence, 31 g/ha): 80%; herbicidal activity (Alopecurus myosuroides; pre-emergence, 31 g/ha): 80%
COc1c(Br)cc(F)c(F)c1Nc1nc(N)nc(C2(F)CC2)n1 [Example 55]	100	100	100		
CC#CCOc1c(Cl)cc(Cl)c(F)c1Nc1nc(N)nc(C(C)(C)F)n1 [Example 61]					herbicidal activity (Echinochloa crus-galli; pre-emergence, 31 g/ha): 100%; herbicidal activity (Amaranthus retroflexus; pre-emergence, 31 g/ha): 100%; herbicidal activity (Abutilon theophrasti; pre-emergence, 31 g/ha): 100%
COc1c(Cl)cc(F)c(F)c1Nc1nc(N)nc(C(C)(F)CCl)n1 (stereo not drawn) [Example 34]	100	100	100		
CC(C)(F)c1nc(N)nc(Nc2c(F)ccc(Br)c2OC2CC2)n1 [Example 13]	100			100	herbicidal activity (Alopecurus myosuroides; pre-emergence, 62,5 g/ha): 100%
CC(C)(F)c1nc(N)nc(Nc2c(F)c(F)cc(F)c2OC/C=C/Cl)n1 [Example 126]		100		100	herbicidal activity (Lolium multiflorum): 100%
CC#CC(C)Oc1c(Cl)cc(F)c(F)c1Nc1nc(N)nc(C2(F)CCCC2)n1 (stereo not drawn) [Example 100]					herbicidal activity (Setaria faberi; pre-emergence, 62 g/ha): 100%; herbicidal activity (Echinochloa crus-galli; pre-emergence, 62 g/ha): 100%; herbicidal activity (Alopecurus myosuroides; pre-emergence, 62 g/ha): 98%
CC(C)(F)c1nc(N)nc(Nc2c(F)c(F)cc(Br)c2OC(F)F)n1 [Example 31]					herbicidal activity (Echinochloa crus-galli; pre-emergence, 250 g/ha): 100%; herbicidal activity (Amaranthus retroflexus; pre-emergence, 250 g/ha): 100%; herbicidal activity (Abutilon theophrasti; pre-emergence, 250 g/ha): 100%
COc1c(Cl)cc(F)c(F)c1Nc1nc(N)nc(C2(F)CC2)n1 [Example 35]	100	100	100		
COc1c(Cl)cc(F)c(F)c1Nc1nc(N)nc(C(C)(F)CBr)n1 (stereo not drawn) [Example 114]		100	100	100	
CC(C)(F)c1nc(N)nc(Nc2c(F)c(F)cc(F)c2OC/C=C/Br)n1 [Example 127]		100		100	herbicidal activity (Lolium multiflorum): 100%
COc1c(Cl)cc(F)c(F)c1Nc1nc(N)nc(C2(F)CCCCC2)n1 [Example 10]					herbicidal activity (Setaria faberi; pre-emergence, 250 g/ha): 100%; herbicidal activity (Amaranthus retroflexus; pre-emergence, 250 g/ha): 100%; herbicidal activity (Abutilon theophrasti; pre-emergence, 250 g/ha): 100%
CC#CC(C)Oc1c(Cl)cc(F)c(F)c1Nc1nc(N)nc(C(C)(C)F)n1 (stereo not drawn) [Example 98]					herbicidal activity (Setaria faberi; pre-emergence, 62 g/ha): 100%; herbicidal activity (Amaranthus retroflexus; pre-emergence, 62 g/ha): 100%; herbicidal activity (Alopecurus myosuroides; pre-emergence, 62 g/ha): 100%
COc1c(Br)cc(F)c(F)c1Nc1nc(N)nc(C(C)F)n1 (stereo not drawn) [Example 120]	100	100	100		
COc1c(Br)c(F)c(F)c(F)c1Nc1nc(N)nc(C(C)(C)F)n1 [Example 164]		100		100	herbicidal activity (Alopecurus myosuroides; pre-emergence, 62,5 g/ha): 100%
CCC#CCOc1c(Br)cc(F)c(F)c1Nc1nc(N)nc(C(C)(C)F)n1 [Example 20]	100	100	100		
CCOc1c(Br)cc(F)c(F)c1Nc1nc(N)nc(C(C)(C)F)n1 [Example 19]	100	100	100		
COc1c(Br)cc(F)c(F)c1Nc1nc(N)nc(C(C)(F)CBr)n1 (stereo not drawn) [Example 123]		100		100	herbicidal activity (Alopecurus myosuroides; pre-emergence, 62,5 g/ha): 100%
CC#CCOc1c(Br)cc(F)c(F)c1Nc1nc(N)nc(C2(F)CCCC2)n1 [Example 16]					herbicidal activity (Echinochloa crus-galli; pre-emergence, 250 g/ha): 100%; herbicidal activity (Amaranthus retroflexus; pre-emergence, 250 g/ha): 100%; herbicidal activity (Abutilon theophrasti; pre-emergence, 250 g/ha): 100%
CC#CCOc1c(Cl)cc(F)c(F)c1Nc1nc(N)nc(C(C)(C)F)n1 [Example 18]	100	100	100		
